Source: ChEMBL document CHEMBL1201862, “PubChem BioAssay data set” (2004)
Blank lines part the entries; values can stand above or below the compound they belong to. Active and inactive are the calls of the source.

Tests used:
[1] = A549 cell cytotoxicity, dose response, cytotoxicity control, plate reader, cherry-pick, antagonist series (AID 743412); assay type: functional, cell-based
[2] = MC4R antagonists, dose response, counter-screen for LGR2 antagonist project, cell-based, plate reader, cherry pick (AID 743444); assay type: functional;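 note: transfected HEK 293 cells stimulated with alpha-MSH peptide; potency of inhibitors of the alpha-MSH evoked signal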
[3] = LGR2 antagonists, dose response, cell-based, HEK293, CRE-luciferase reporter, cherry pick, set 2 (AID 743343); assay type: functional;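 note: transfected cells were stimulated with diluted bursicon conditioned medium after compound addition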
[4] = HepG2 cell cytotoxicity, dose response, cytotoxicity control, plate reader, cherry-pick, antagonist series (AID 743416); assay type: functional, cell-based
[5] = target: T1, Small ubiquitin-related modifier 1 (Homo sapiens, UniProt P63165); assay: inhibitors of SUMO1 partner interactions, dose response, biochemical, FRET (AID 624383); assay type: functional; conditions: read-out: IC50_Mean
[6] = target: T2, Probable nicotinate-nucleotide adenylyltransferase (Staphylococcus aureus (strain N315), UniProt P65502); assay type: functional, Staphylococcus aureus subsp. aureus N315;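 for IC50 Mean: confirmatory dose-response retesting of NadD inhibitor hits first found in an ultra-high-throughput screen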
[7] = target: T3, Small ubiquitin-related modifier 2 (Homo sapiens, UniProt P61956); assay: inhibitors of SUMO2 protein-protein interaction, dose response, selectivity assay for SUMO1 interaction inhibitor project, biochemical, FRET, human SUMO2, uHTS hits (AID 624384); assay type: functional; conditions: read-out: IC50_Mean
[8] = target: DNA (cytosine-5)-methyltransferase 1 (Homo sapiens, UniProt P26358); assay: DNMT1 methyltransferase inhibitors, confirmation, biochemical, fluorescent molecular beacon (AID 602386); assay type: functional
[9] = target: T3, Small ubiquitin-related modifier 2; assay: SUMO2–SIM peptide binding inhibitors, dose response, selectivity assay for SUMO1 interaction inhibitor project, biochemical, fluorescence polarization, uHTS hits (AID 624385); assay type: functional; conditions: read-out: IC50_Mean
[10] = target: T1, Small ubiquitin-related modifier 1; assay: inhibitors of SUMO1 peptide binding, dose response, biochemical, fluorescence polarization, uHTS hits (AID 624382); assay type: functional; conditions: read-out: IC50_Mean
[11] = target: T2, Probable nicotinate-nucleotide adenylyltransferase; assay type: functional, Staphylococcus aureus subsp. aureus N315; conditions: read-out: IC50_Mean
[12] = target: Disintegrin and metalloproteinase domain-containing protein 17 (Homo sapiens, UniProt P78536); assay: exosite inhibitors of ADAM17, dose response, biochemical (AID 743260)
[13] = ADAM10 protease inhibitors, dose response, selectivity assay for ADAM17 exosite inhibitor project, biochemical, FRET peptide substrate, recombinant human ADAM10 (AID 743259);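 note: ADAM10 enzyme cleaving a FRET peptide substrate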
[14] = Fluorescence-based cell-based high throughput dose response assay for inhibitors of the interaction of nucleotide-binding oligomerization domain containing 2 (NOD2) and the receptor-interacting serine-threonine kinase 2 (RIPK2).; assay type: functional, Homo sapiens
[15] = target: T4, Scavenger receptor class B member 1 (Mus musculus, UniProt Q61009); assay: inhibitors of SR-BI-mediated HDL uptake, dose response, cell-based, ldlA[mSR-BI] CHO, DiI fluorescence, dry powder, set 10 (AID 624029); assay type: functional
T4 sequence (Q61009 whole entry): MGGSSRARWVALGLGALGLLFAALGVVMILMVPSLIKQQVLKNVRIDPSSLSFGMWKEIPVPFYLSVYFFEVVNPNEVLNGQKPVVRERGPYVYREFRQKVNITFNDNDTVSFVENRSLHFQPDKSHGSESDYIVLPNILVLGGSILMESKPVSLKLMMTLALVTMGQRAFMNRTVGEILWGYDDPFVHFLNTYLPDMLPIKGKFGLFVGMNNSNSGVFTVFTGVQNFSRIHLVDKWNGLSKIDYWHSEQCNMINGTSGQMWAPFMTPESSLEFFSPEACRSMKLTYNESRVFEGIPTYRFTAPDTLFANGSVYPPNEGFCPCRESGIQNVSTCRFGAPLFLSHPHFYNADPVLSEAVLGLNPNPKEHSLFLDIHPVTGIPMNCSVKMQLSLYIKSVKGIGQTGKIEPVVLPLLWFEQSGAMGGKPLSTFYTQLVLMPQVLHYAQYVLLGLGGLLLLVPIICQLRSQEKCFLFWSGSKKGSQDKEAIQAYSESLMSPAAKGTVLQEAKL

[16] = target: T4, Scavenger receptor class B member 1; assay: inhibitors of SR-BI dependent HDL uptake, dose response, ldlA[mSR-BI] CHO cells, fluorescence plate reader, dry powder, set 9 (AID 623880); assay type: functional, cell-based
[17] = target: T5, Protein disulfide-isomerase (Homo sapiens, UniProt P07237); assay: PDI inhibitors, insulin turbidity readout, confirmation, biochemical, dry powder samples, set 2 (AID 652146)
[18] = target: T5, Protein disulfide-isomerase; assay: PDI inhibitors, insulin aggregation turbidity, dose response, biochemical, absorbance, cherry-picked samples (AID 602350); assay type: functional
Beta-galactosidase = Beta-galactosidase (Escherichia coli, UniProt Q8VNN2); assay: beta-galactosidase enzyme inhibitors and activators, dose response, artefact control for CCR6 antagonist project, biochemical, E. coli enzyme, set 3 (AID 504712); assay type: functional
[19] = target: T6, Rac GTPase-activating protein 1 (Homo sapiens, UniProt Q9H0H5); assay: MgcRacGAP GTPase-activating activity inhibitors, confirmation, biochemical, ADP Hunter fluorescence, primary and confirmatory (AID 624330); assay type: functional
T6 sequence (Q9H0H5 whole entry): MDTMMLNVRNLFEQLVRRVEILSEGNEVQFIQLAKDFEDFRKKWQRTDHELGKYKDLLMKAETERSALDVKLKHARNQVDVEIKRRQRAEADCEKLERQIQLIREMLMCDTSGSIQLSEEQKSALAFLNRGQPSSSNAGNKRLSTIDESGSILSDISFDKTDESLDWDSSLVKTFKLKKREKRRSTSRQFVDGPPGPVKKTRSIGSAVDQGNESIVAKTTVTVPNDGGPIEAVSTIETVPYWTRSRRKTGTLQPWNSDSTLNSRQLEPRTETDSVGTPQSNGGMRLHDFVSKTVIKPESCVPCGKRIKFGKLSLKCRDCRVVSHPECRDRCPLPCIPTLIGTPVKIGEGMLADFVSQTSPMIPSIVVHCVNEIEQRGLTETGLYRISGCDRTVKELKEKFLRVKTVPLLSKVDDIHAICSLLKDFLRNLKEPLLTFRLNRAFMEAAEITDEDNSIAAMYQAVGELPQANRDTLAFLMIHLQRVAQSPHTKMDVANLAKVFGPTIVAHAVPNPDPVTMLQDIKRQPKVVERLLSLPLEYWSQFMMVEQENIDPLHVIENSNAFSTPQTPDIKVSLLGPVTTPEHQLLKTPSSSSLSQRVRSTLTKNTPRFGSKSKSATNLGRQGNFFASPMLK

[20] = target: T7, Carboxy-terminal domain RNA polymerase II polypeptide A small phosphatase 1 (Homo sapiens, UniProt Q9GZU7); assay: inhibitors of CTDSP1, concentration-response testing, biochemical assay, absorbance-based, actives from ultra-high-throughput screening (AID 540297); assay type: functional
T7 sequence (Q9GZU7 whole entry): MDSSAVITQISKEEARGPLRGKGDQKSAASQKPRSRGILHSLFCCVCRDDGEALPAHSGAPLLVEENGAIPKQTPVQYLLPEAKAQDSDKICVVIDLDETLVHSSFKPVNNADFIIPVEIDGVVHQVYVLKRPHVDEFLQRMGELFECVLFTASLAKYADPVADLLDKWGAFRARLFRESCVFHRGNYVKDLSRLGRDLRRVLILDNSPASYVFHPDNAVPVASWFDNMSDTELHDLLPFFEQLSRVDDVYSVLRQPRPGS

[21] = HeLa cell cytotoxicity, dose response, cytotoxicity control for MgcRacGAP inhibitor project (AID 624300); assay type: functional
Protein Wnt-3a = Protein Wnt-3a (Mus musculus, UniProt P27467); assay: Wnt3a-driven reporter signaling inhibition, dose response, selectivity assay for Gli-SUFU antagonist project, Wnt-LIGHT cells, luminescence (AID 651570); assay type: functional; conditions: read-out: IC50_Mean;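 note: Wnt-LIGHT reporter cells stimulated with conditioned medium from Wnt3a-producing cells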
Chain of Protein Wnt-3a (P27467 whole entry): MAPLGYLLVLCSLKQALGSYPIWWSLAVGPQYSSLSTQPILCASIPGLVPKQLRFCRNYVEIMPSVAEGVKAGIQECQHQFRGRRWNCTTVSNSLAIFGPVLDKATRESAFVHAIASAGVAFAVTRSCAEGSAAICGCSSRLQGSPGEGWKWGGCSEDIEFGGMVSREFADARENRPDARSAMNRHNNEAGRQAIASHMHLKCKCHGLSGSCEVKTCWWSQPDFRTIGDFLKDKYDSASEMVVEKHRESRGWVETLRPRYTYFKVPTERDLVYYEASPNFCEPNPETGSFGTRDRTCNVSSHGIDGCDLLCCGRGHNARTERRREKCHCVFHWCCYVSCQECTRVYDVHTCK

T1 sequence (P63165 whole entry): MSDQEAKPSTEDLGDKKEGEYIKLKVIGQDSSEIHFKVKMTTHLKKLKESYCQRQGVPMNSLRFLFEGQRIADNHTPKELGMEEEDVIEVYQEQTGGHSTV
T3 sequence (P61956 whole entry): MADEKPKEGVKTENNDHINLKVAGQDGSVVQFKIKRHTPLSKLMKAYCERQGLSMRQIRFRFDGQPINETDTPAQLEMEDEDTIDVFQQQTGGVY
Chain of DNA (cytosine-5)-methyltransferase 1 (P26358 whole entry): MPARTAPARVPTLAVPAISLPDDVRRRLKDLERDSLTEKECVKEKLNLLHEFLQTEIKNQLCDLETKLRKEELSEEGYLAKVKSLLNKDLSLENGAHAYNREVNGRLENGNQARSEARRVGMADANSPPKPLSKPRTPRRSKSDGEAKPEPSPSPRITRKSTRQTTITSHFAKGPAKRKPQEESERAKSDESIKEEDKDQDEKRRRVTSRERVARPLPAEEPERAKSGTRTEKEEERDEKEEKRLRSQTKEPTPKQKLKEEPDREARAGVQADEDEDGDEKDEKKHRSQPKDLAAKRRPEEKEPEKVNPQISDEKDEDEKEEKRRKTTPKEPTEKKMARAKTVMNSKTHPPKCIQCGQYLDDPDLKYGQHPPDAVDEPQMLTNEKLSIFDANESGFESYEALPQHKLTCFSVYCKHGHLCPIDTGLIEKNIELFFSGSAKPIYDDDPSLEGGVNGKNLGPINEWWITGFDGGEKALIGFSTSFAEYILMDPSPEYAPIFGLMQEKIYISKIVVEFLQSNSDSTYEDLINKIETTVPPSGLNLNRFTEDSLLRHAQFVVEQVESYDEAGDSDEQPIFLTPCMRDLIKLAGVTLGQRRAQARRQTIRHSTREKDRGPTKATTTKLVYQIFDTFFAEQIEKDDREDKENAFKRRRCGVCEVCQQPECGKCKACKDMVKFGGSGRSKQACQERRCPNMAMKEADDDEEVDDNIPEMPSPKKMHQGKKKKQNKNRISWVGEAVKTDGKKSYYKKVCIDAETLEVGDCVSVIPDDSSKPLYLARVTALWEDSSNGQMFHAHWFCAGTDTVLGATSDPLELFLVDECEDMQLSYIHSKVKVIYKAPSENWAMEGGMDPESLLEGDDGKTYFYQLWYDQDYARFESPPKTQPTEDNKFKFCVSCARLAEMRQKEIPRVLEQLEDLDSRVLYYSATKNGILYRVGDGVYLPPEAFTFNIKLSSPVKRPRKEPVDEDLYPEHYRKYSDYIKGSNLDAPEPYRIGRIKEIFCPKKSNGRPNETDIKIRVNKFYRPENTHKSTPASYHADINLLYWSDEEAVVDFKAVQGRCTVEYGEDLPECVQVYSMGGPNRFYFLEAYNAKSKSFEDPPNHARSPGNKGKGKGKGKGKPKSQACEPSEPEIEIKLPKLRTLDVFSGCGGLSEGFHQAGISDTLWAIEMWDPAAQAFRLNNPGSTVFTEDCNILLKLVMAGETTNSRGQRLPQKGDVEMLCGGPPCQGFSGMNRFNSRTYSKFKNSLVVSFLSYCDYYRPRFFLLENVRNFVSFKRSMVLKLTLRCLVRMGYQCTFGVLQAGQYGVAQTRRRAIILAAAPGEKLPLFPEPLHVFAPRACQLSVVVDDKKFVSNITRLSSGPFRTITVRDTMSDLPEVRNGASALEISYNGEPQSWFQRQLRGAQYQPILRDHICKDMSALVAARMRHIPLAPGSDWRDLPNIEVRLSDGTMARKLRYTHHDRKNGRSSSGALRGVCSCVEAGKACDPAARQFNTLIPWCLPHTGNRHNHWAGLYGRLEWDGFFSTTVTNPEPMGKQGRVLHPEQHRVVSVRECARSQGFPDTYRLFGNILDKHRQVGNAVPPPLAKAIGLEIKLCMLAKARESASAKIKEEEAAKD
T5 sequence (P07237 whole entry): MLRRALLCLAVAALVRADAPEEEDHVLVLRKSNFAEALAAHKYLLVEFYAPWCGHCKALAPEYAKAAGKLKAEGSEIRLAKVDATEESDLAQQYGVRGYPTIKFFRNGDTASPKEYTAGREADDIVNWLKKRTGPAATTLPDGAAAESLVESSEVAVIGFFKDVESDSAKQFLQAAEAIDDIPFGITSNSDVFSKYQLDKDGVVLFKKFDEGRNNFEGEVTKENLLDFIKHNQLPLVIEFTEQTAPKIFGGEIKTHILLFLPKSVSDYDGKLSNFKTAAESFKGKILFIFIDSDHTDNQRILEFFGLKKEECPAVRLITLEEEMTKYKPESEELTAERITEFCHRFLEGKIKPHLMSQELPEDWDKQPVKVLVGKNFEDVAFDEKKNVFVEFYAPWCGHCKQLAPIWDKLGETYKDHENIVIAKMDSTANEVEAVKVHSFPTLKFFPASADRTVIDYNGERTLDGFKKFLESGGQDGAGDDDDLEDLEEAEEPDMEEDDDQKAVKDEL
Chain of Beta-galactosidase (Q8VNN2 whole entry): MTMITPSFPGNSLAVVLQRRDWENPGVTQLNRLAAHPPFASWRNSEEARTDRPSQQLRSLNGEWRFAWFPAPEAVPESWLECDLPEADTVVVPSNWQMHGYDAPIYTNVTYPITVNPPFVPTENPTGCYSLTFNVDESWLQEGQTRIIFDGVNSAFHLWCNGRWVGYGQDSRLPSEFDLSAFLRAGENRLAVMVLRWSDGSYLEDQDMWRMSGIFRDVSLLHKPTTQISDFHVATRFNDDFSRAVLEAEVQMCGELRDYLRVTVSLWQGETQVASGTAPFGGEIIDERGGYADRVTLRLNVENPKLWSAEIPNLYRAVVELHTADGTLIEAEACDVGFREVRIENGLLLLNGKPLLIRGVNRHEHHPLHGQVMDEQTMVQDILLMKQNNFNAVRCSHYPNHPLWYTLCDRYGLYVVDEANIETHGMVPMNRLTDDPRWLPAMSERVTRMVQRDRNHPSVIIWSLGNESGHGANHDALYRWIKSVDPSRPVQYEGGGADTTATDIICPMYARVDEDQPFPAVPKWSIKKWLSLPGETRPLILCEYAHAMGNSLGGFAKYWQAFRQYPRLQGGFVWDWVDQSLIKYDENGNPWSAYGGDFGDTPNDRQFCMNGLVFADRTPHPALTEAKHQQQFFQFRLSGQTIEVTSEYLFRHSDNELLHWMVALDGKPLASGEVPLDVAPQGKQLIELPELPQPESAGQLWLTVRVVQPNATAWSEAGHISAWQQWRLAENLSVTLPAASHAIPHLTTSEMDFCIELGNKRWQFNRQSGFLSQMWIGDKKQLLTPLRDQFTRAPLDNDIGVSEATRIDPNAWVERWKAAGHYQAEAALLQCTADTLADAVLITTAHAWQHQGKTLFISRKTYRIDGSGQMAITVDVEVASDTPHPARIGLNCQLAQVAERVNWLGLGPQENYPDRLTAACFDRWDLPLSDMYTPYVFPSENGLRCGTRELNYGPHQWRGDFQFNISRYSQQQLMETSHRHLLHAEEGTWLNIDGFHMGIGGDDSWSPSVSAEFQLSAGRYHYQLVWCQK
Chain of Disintegrin and metalloproteinase domain-containing protein 17 (P78536 whole entry, the tested form may be a part): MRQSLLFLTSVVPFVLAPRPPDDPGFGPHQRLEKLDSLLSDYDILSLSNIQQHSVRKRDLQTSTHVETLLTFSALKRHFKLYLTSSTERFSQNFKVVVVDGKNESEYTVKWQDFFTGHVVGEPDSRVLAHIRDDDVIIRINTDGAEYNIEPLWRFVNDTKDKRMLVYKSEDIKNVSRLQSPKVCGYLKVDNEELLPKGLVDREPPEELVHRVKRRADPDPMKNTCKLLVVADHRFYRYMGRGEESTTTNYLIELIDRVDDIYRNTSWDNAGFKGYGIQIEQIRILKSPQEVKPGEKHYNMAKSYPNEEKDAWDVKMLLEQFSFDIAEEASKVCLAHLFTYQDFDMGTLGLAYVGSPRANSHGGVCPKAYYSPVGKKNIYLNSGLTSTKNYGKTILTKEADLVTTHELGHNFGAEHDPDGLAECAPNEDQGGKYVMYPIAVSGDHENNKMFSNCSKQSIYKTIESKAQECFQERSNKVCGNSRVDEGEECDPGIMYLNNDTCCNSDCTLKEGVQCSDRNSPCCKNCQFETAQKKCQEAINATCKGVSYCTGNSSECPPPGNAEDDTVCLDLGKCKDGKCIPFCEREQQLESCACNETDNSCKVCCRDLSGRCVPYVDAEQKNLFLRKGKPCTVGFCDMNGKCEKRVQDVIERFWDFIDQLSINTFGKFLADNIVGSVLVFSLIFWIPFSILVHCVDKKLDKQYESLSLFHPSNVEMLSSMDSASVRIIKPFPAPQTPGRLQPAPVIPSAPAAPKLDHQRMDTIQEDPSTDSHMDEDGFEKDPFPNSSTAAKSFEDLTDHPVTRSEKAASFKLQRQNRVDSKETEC

Structure (SMILES): N#C[C@@H]1[C@H](c2ccc(C#Cc3cccc(F)c3)cc2)[C@@H](CO)N1C(=O)C1CCC1
AC50 [1]: 28.2 µM (active)
AC50 [2]: 8.46 µM (active)
AC50 [3]: 9.75 µM (active)
AC50 [4]: > 47 µM (inactive)

Structure (SMILES): COc1ccc(Br)cc1/C=N/Nc1ccc(S(=O)(=O)Nc2ccccc2C(=O)O)cc1[N+](=O)[O-]
IC50 [5]: 50.6 µM (inactive)
IC50 [6]: 3.24 µM (active)
IC50 [7]: 45.4 µM (inactive)
IC50 [8]: 3.39 µM (active)
IC50 [9]: 2.52 µM (active)
IC50 [10]: 4.47 µM (active)
IC50 [11]: 19.9 µM (active)

Structure (SMILES): CC1=CC2OC3CC4OC(=O)C=CC=CC(=O)OCCC(C)C(O)C(=O)OCC2(CC1O)C4(C)C31CO1 (stereo not drawn)
IC50 [14]: 49.7 µM (inactive)

Structure (SMILES): C=CCOc1ccc(CN2CCC(CCOc3ccccc3)(C(=O)NC3CCCC3)CC2)cc1Cl
AC50 [17]: > 30 µM (inactive)

Structure (SMILES): O=C1C[C@@H](c2ccc(O[C@@H]3O[C@H](CO)[C@@H](O)[C@H](O)[C@H]3O)cc2)Oc2cc(O)ccc21 [LIQUIRITIN]
AC50 [18]: 15.6 µM (active)

Structure (SMILES): C=CCOc1ccc(C=NNc2ccc(S(=O)(=O)Nc3ccccc3C(=O)O)cc2[N+](=O)[O-])cc1OC
IC50 [5]: 51.2 µM (inactive)
IC50 [7]: > 66 µM (inactive)
IC50 [8]: 5.32 µM (active)
IC50 (Beta-galactosidase): > 66.6 µM (inactive)
IC50 [9]: 17.1 µM (active)
IC50 [19]: 65.6 µM (active)
IC50 [20]: 2 µM (active)
IC50 [10]: 14 µM (active)
CC50 [21]: 100 µM (active)

The next lines start with results.

IC50 [12]: > 69.5 µM (inactive)
Structure (SMILES): Cc1ccc(S(=O)(=O)N2C[C@H]3C(=O)C[C@@H](c4ccccc4)N(S(=O)(=O)c4ccc(C)cc4)[C@H]3C[C@H]2c2cccc3ccccc23)cc1
IC50 [13]: > 69.5 µM (inactive)

AC50 [15]: > 70 µM (inactive)
AC50 [16]: 38.9 µM (active)
Structure (SMILES): C[C@@H]1CN([C@H](C)CO)C(=O)c2cc(NC(=O)C3CCCCC3)ccc2O[C@H]1CN(C)C(=O)c1ccc(Cl)cc1

IC50 (Protein Wnt-3a): 20.8 µM (inactive)
Structure (SMILES): O=C(C[C@H]1C/C=C\C[C@@H](NC(=O)OCC2c3ccccc3-c3ccccc32)C(=O)O[C@@H](c2ccccc2)CNC1=O)N[C@H](CO)Cc1ccccc1
